Measurements as given in US20250281479A1, “TREATMENT OF CAVERNOUS ANGIOMAS WITH A 4-SUBSTITUTED PIPERIDINE DERIVATIVE” (Neurelis, Inc., priority 2024, published 2025).
Like-named read-outs stand apart in the source and are kept apart here.

What was measured:
[1] = first-in-human single ascending dose and food-effect study, plasma pharmacokinetics; format: in vivo; conditions: for AUC / AUC(0-inf) / Cmax / Vd/F / AUC(0-t) / Tmax: both sexes, human, plasma, po; for AUC / AUC(0-inf) / Cmax / Vd/F / AUC(0-t) / CL/F / Thalf: mean; for AUC: read-out: AUC0-Tmax; for AUC(0-inf): read-out: AUCinf; for Cmax: read-out: Cmax; for Vd/F: read-out: Vz/F; for AUC(0-t): read-out: AUC0-T
Excerpt: This was a first-in-human, single center, randomized, double-blind, placebo-controlled, single ascending dose (SAD) study, including a food-effect assessment, in healthy male and female subjects. Up to 44 subjects were included in the study.
The study consisted of 4 sequential cohorts of 8 subjects each (6 active and 2 placebo), randomly assigned to receive a single oral dose of NRL-1049 or matching-placebo under fasting state on Day 1 (See Table 2). In each cohort, a sentinel group of 2 subjects (1 active and 1 placebo) were dosed at least 24 hours prior to enrolling the remaining subjects of the cohort, contingent on the safety profile observed during sentinel dosing, as defined by medical judgment.
Subjects were admitted to the clinical research unit (CRU) on Day −1. On Day 1, following an overnight fast, subjects received a single oral dose of their assigned study treatment. Safety, PK, and exploratory biomarker assessments were performed prior to dosing and at assigned time points during study confinement. Subjects were permitted to leave the CRU following the completion of the 48-hour PK postdose sampling and safety assessments. A safety follow-up phone call was performed on Day 8 (±1 day).
Furthermore, a food-effect assessment was integrated into Cohort 3, in which a single oral 150 mg dose of NRL-1049 or placebo was administered to 12 subjects (10 active and 2 placebo) under fed state in Period 2 (refer to schedule of food-effect Cohort 3 in Table 3). After completion of Period 1 and a washout period of at least 14 days, Cohort 3 subjects repeated the screening procedures to ensure they still met the inclusion and exclusion criteria prior to readmission to the CRU for Period 2. Subjects dosed in Period 1 and who returned for Period 2 (a maximum of 6 active and 2 placebo) were administered the same single oral dose in Period 2 under fed state. In addition, at least 4 new subjects were enrolled in Period 2 only, in order to dose a total of 12 subjects (10 active and 2 placebo), in a 1:1 ratio of male to female. If a subject dosed in Period 1 was unable to return for Period 2, a new subject was enrolled to ensure dosing a total of 12 subjects in Period 2. Newly enrolled subjects only received the study drug in the fed state, and as such were not required to undergo Period 1 activities. There was no sentinel approach in Period 2.
Study drugs (NRL-1049 or placebo) were administered in the morning. The date and time of each dose was recorded. For each subject, all scheduled postdose activities and assessments were performed relative to the time of study drug administration. An oral dose of the assigned formulation was administered to subjects with approximately 240 mL of water at ambient temperature. The capsule(s) were swallowed whole and not chewed or broken. Food and fluid intake other than water were controlled for each confinement period and all subjects. In Cohorts 1, 2, 3 (Period 1), and 4, water was permitted as needed except from 1 hour predose until 1 hour after dosing. In Period 2 of Cohort 3, water was permitted as needed throughout the confinement period. For cohorts under fasting state, subjects were required to fast (abstain from food) for at least 10 hours prior to dosing and for at least 4 hours following dosing. In Period 2 of the food-effect cohort only, following an overnight fast of at least 10 hours, subjects received a standardized high-fat, high-calorie meal 30 minutes prior to study drug administration. An example meal would consist of 2 eggs fried in butter, 2 strips of bacon, 2 slices of toast with butter, 4 ounces of hash brown potatoes, and 8 ounces of whole milk. […] Subjects had to eat the total content of this meal in 30 minutes or less. For all cohorts, a standardized lunch was served at least 4 hours after dosing. A supper, light snack, and other meals were served at appropriate times thereafter, but not until after 9 hours postdose. […]

[2] = tested on: human alpha1-acid glycoprotein; assay: binding to human alpha1-acid glycoprotein; format: in vitro ADME
Method: (§1) Exposure to NRL-2017 was similar or greater (up to 5-fold) than that to NRL-1049 in rats when dosed once a day (QD). In monkeys, exposure to NRL-2017 was also greater (up to 33-fold) than that to NRL-1049. When rats were dosed twice a day (BID) for 14 days, there was a decrease in formation of NRL-2017 with exposure to NRL-2017 lower than that of NRL-1049 (ratio as low as 0.06). […] NRL-1049 bound to human serum albumin and human alpha1-acid glycoprotein. […] There was also inhibition of P-glycoprotein (P-gp) (only CACO-2 cells), organic anion transporting polypeptides (OATP) OATP1B1, OATP1B3 and OAT3 (IC50, >100 μM), but no effect on P-gp (MDCK2 cells), breast cancer resistance protein (BCRP), bile salt export pump (BSEP), or MATE2-K. NRL-1049 is a substrate for P-gp, not BCRP. […] This conclusion will be revisited when human pharmacokinetic (PK) data becomes available.

CYP1A2 = assay: CYP induction in hepatocyte culture; format: in vitro ADME; conditions: in at least one hepatocyte culture
Method: as §1

CYP3A4 = assay: CYP induction in hepatocyte culture; format: in vitro ADME; conditions: in at least one hepatocyte culture
Method: as §1

[3] = 150 mg, plasma NRL-1049, 150 mg NRL-1049 single oral, Fasted, Cohort 3, N = 6
[4] = 150 mg, plasma NRL-1049, 150 mg NRL-1049 single oral, Fed, Cohort 3, N = 10
[5] = 250 mg, plasma NRL-1049, 250 mg NRL-1049 single oral, fasting, Cohort 4, N = 6
[6] = plasma NRL-1049, 25 mg NRL-1049 single oral, fasting, Cohort 1, N = 6
[7] = plasma NRL-1049, 75 mg NRL-1049 single oral, fasting, Cohort 2, N = 6
[8] = plasma NRL-1049, 150 mg NRL-1049 single oral, Fed, Cohort 3, N = 10
[9] = plasma NRL-1049, 250 mg NRL-1049 single oral, fasting, Cohort 4, N = 6

C[C@@H](N)C1CCN(S(=O)(=O)c2cccc3cnccc23)CC1 [NRL-1049]
AUC [1, 3]: 6.16 ng·h/mL
AUC(0-inf) [1, 3]: 36.2 ng·h/mL
Cmax [1, 3]: 34.9 ng/mL
Vd/F [1, 3]: 10800 L
AUC(0-t) [1, 4]: 42 ng·h/mL
AUC [1, 4]: 6.14 ng·h/mL
AUC(0-inf) [1, 4]: 44.7 ng·h/mL
Cmax [1, 4]: 18.5 ng/mL
Vd/F [1, 4]: 10800 L
Tmax ([1]; 150 mg, plasma NRL-1049, median, 150 mg NRL-1049 single oral, Fasted, Cohort 3, N = 6, read-out: Tmax): 30 min
Tmax ([1]; 150 mg, plasma NRL-1049, median, 150 mg NRL-1049 single oral, Fed, Cohort 3, N = 10, read-out: Tmax): 52.8 min
AUC(0-t) [1, 5]: 76.5 ng·h/mL
AUC [1, 5]: 8.73 ng·h/mL
AUC(0-inf) [1, 5]: 78.2 ng·h/mL
Cmax [1, 5]: 58 ng/mL
Vd/F [1, 5]: 4940 L
Tmax ([1]; 250 mg, plasma NRL-1049, median, 250 mg NRL-1049 single oral, fasting, Cohort 4, N = 6, read-out: Tmax): 30 min
Tmax ([1]; range over single oral doses of 25 to 250 mg NRL-1049, fasting state, read-out: median time to maximum observed plasma concentration (Tmax)): 30 to 45 min
CL/F [1, 6]: 7420 L/h
Thalf [1, 6]: 0.52 h
CL/F [1, 7]: 5350 L/h
Thalf [1, 7]: 0.81 h
CL/F ([1]; plasma NRL-1049, 150 mg NRL-1049 single oral, Fasted, Cohort 3, N = 6): 4820 L/h
CL/F [1, 8]: 3700 L/h
Thalf [1, 8]: 2.05 h
CL/F [1, 9]: 3370 L/h
Thalf [1, 9]: 1.03 h
binding to human alpha1-acid glycoprotein [2]: bound
induction of CYP1A2 (CYP1A2): 3 fold
induction of CYP3A4, maximal effective concentration [Emax] (CYP3A4): 2.19 fold
EC50 (CYP3A4; read-out: induction of CYP3A4, half-maximal effective concentration [EC50]): 41.5 µM
